Measurements: patent US6160008A, “Pharmaceutical compositions comprising S-alkylisothiouronium derivatives” (priority 1996, dated 2000)
Entries after “also recorded” stand apart in the source; their conditions may differ.

Assays:
[1] = system: rats exposed to an oxygen pressure of 6 atm; assay: Toxic effect of oxygen at a pressure of 6 atm in rats (Tables 16-18); assay type: in vivo, white rats; settings: 20 mg/kg i.p.
Description: Experiments on the toxic effect of oxygen at a pressure of 6 atm were carried out similarly in a hyperbaric chamber C-203 (chamber volume 0.45 m^3), on white rats, during 50 minutes. The preparation was injected intraperitoneally at a dose of 20 mg/kg. In the controls, 2 ml/kg of water for injections was injected intraperitoneally. After decompression the rats were decapitated and the glucose content, urea content, ureal nitrogen and total hemoglobine content were determined in the blood serum, as well as the index <<lung mass in gr./body mass in gr. X 100>> (i.e. lung coefficient).

[2] = system: acid-base balance and gas composition of arterial blood; assay: Acid-base balance and gas composition of arterial blood in hemorrhagic shock (Table 6); assay type: in vivo, cats
Description: The influence of S-ethylisothiouronium diethylphosphate on the major indices of the blood acid-base state (AAS) and gas content in hemorrhagic shock was studied at a dose of 5 mg/kg. The cats were narcotized intraperitoneally with pentobarbital sodium (nembutal) at a dose of 40 mg/kg. The blood loss was caused by blood-letting from the common carotid artery in an amount of 3.2% of the animal body mass, which approximately corresponds to 45-47% of the blood circulation volume. The blood-letting was carried out during 3-5 minutes. Tension characteristics of oxygen and carbon dioxide in arterial (PaO2, PaCO2) and mixed venous (PvO2, PvCO2) blood, pHa and pH were studied by Astrup micromethod. The hemoglobin content (Hb) was determined by the cianohemoglobin method. Bicarbonate ion content /HCO3 was calculated with the help of the Severinghause ruler. Calculations were carried out on the CM-1403-02 computer in the Forhtran language program. Indices of the acid-base balance and blood gas content were studied in the initial state, on the 30th minute after acute bleeding as well as on 2nd, 10th, 30th, and 60th minute after the medicine injection. The substance was injected singly intravenously on the 30th minute after the blood-letting.
In the test group (n=6), S-ethylisothiouronium diethylphosphate was injected at a dose of 5 mg/kg.

[3] = Biochemical indices of mice blood serum, acute experiment (Table 8); assay type: in vivo, F1 (C57B1×CBA); settings: 500 mg/kg i.v.; for Total protein: in g/L (unit assumed)
Description: The effect of S-ethylisothiouronium diethylphosphate on body constituents was estimated in chronic and acute experiments. These experiments were conducted on F1 (C57B1×CBA) line mice and biochemical tests were made after a single administration of S-ethylisothiouronium diethylphosphate, injected intravenously at doses of 100 mg/kg (in the chronic experiment) and 500 mg/kg (in the acute experiment).
In the acute experiment, blood was taken 30, 60 and 75 minutes after the administration of the medicine. In the chronic experiment (which lasted 30 days), blood was daily examined 1 hour after the injection. Terms of the study were 1, 7, 14, and 21 days. The concentrations of total protein, total cholesterol, and glucose in mice blood serum were determined by conventional methods. Total protein was determined by a biuret method, total cholesterol--by like method, glucose--by the glucose-oxidase method.
Mouse blood was obtained after rapid decapitation. Tested material was sampled at the same time of the day and on the same season.
Blood for serum was sampled into centrifuge test tubes, put into the thermostat for 30-40 minutes; the clot was outlined by a needle, then it was put into a refrigerator for 1 hour+4° C. After cooling it was centrifuged at 3000 RPM during 10-15 minutes. Serum with no signs of hemolysis was sampled into a clean tube. All quantitative indices of the blood biochemical characteristics were obtained by spectrophotometric measurements. Calibration curves to determine total protein and cholesterol were constructed in advance.

arterial blood pressure = assay: Clinical testing under spinal epidural anesthesia; assay type: in vivo, patients; settings: urological operations
Description: This experiment was conducted at the General Anesthesia Department of the First Republican Hospital of Moldova. The goal of this clinical study was to estimate the ability of Difetur to act as a hypertensive drug, compared to the known adrenergic drug--ephedrine. The experiments were performed on one hundred patients, underwent urological operations under spinal epidural anesthesia, their age being between 20 and 80. The following findings are presented in view of Difetur: […]

[4] = system: cardiovascular system of dogs; assay: Effect on the cardiovascular system of dogs (FIGS. 11-13); assay type: in vivo; settings: i.v.
Description: In the following tests, the effect of S-ethylisothiouronium diethylphosphate was studied on the cardiovascular system of dogs. AP was measured by two methods: it was registered on the tail artery by means of a piezosensor (Ugo Bazile pressure gauge) and in the thigh artery by a catheter filled with heparin. Electrocardiogram was registered in three standard branches.
S-ethylisothiouronium diethylphosphate was injected at doses of 1 mg/kg (n=5), 5 mg/kg (n=18), and 100 mg/kg (n=8). […] The development of a bradycardiac effect was noted which started already on the first minutes after the injection, reaching on the average 25-30% of the initial level. Maximal bradycardiac value was observed on the 30th-40th minutes after the experiment started and maintained till the 60th minute of the observation.
Due to this fact the study was carried out separately for normotonics and hypotonics.

[5] = 5 mg/kg i.v., 10 min after injection
[6] = 5 mg/kg i.v., 30 min after injection
[7] = 5 mg/kg i.v., 60 min after injection

SMILES: CCSC(=N)N [S-ethylisothiouronium diethylphosphate]
- Asphyxia, animal number ([1]; 36 rats): 0
- Generalized cramps, % of animals ([1]; 36 rats): 2.8%
- Generalized cramps, animal number ([1]; 36 rats): 1
- Lateral position, animal number ([1]; 36 rats): 0
- Number of perished rats ([1]; 36 rats): 0
- Lung coefficient (lung mass in gr./body mass in gr. X 100) ([1]; Average ± SD, 16 animals): 0.474 ± 0.024
- Glucose (blood serum) ([1]; M ± m, n = 16): 5.765 ± 0.214
- Hemoglobin (blood serum) ([1]; M ± m, n = 16): 2.028 ± 0.048
- Urea (blood serum) ([1]; M ± m, n = 16): 4.643 ± 0.212
- Urea Nitrogen (blood serum) ([1]; M ± m, n = 16): 2.163 ± 0.099
- Protection at 6 atm in words ([1]; rats, listed as Difetur): improve blood serum biochemical indices; also recorded: efficiently protect lungs from the toxic effect of increased oxygen pressure; also recorded: did not practically effect the hemoglobin content but considerably improved other indices; also recorded: significantly reduced the <<lung mass in gr./body mass>> index; also recorded: completely prevented animals' death and reduced other visible consequences of the oxygen poisoning
- Bicarbonate ion content increase, arterial blood ([2]; 5 mg/kg i.v., 10th minute): 5%
- Bicarbonate ion content increase, arterial blood ([2]; 5 mg/kg i.v., 30th minute): 16%
- Bicarbonate ion content (HCO3 a) [2, 5]: 15.583 ± 1.333 mmol/L
- Buffer bases (Bba) [2, 5]: 34.150 ± 1.364 mmol/L
- Buffer bases shift (Bea) [2, 5]: -7.866 ± 1.095 mmol/L
- Carbonic acid gas tension (PaCO2) [2, 5]: 28.616 ± 2.858 mm Hg
- Oxygen tension (PaO2) [2, 5]: 94.483 ± 6.012
- pHa [2, 5]: 7.252±0.018
- Decrease of partial pressure of carbon dioxide (arterial and venous blood) ([2]; 5 mg/kg i.v., 10 minute, vs 30th minute after blood letting): 9%
- Bicarbonate ion content (HCO3 a) [2, 6]: 17.083 ± 1.065 mmol/L
- Buffer bases (Bba) [2, 6]: 34.966 ± 3.534 mmol/L
- Buffer bases shift (Bea) [2, 6]: -8.016 ± 1.436 mmol/L
- Carbonic acid gas tension (PaCO2) [2, 6]: 31.083 ± 1.933 mm Hg
- Oxygen tension (PaO2) [2, 6]: 95.466 ± 7.144
- pHa [2, 6]: 7.310±0.064
- Bicarbonate ion content (HCO3 a) [2, 7]: 15.900 ± 3.033 mmol/L
- Buffer bases (Bba) [2, 7]: 32.733 ± 5.616 mmol/L
- Buffer bases shift (Bea) [2, 7]: -9.450 ± 3.903 mmol/L
- Carbonic acid gas tension (PaCO2) [2, 7]: 35.217 ± 7.339 mm Hg
- Oxygen tension (PaO2) [2, 7]: 85.550 ± 6.575
- pHa [2, 7]: 7.208 ± 0.036
- Effect on acid-base balance and blood gases in words ([2]; arterial blood, hemorrhagic shock): does not influence negatively the acid-base balance; also recorded: corrects the metabolic acidosis caused by the loss of blood; also recorded: it had the tendency to increase in the arterial blood, and to decrease in the venous blood
- Body mass ([3]; 30 min): 24.8 ± 1.2 g
- Glucose ([3]; 30 min): 13.4 ± 2.6 mmol/L
- Total cholestrol ([3]; 30 min): 7.8 ± 1.2 mmol/L
- Total protein ([3]; 30 min): 99.0 ± 4.3
- Serum biochemistry in words ([3]; 30 minutes): an increase in the concentration of total protein, cholesterol and glucose was observed, which subsequently had the tendency for normalization
- Body mass ([3]; 60 min): 26.1 ± 1.8 g
- Glucose ([3]; 60 min): 9.0 ± 0.8 mmol/L
- Total cholestrol ([3]; 60 min): 7.2 ± 1.6 mmol/L
- Total protein ([3]; 60 min): 89.4 ± 4.6
- Body mass ([3]; 75 min): 26.0 ± 0.5 g
- Glucose ([3]; 75 min): 6.6 ± 1.0 mmol/L
- Total cholestrol ([3]; 75 min): 5.4 ± 1.2 mmol/L
- Total protein ([3]; 75 min): 87.6 ± 3.8
- Duration of hypertensive action (arterial blood pressure): 40 to 60 min
- Time until blood pressure attains the initial value (arterial blood pressure): ≤ 90 min
- Clinical safety findings (arterial blood pressure; listed as Difetur): No cases of secondary hypertension were observed; also recorded: No complications of allergic type of the blood circulation or respiration were observed
- Effect on patient's blood pressure in words (arterial blood pressure; listed as Difetur): prevented the decrease in the patient's blood pressure; also recorded: blood pressure of the patients remained stable; also recorded: rapid and prolonged effect on arterial blood pressure
- Electrocardiogram ([4]; all doses): did not reveal any pathological changes
- Bradycardiac effect, relative to the initial level ([4]; dogs): 25-30%
- Optimal dose ([4]; dogs): 5 to 10 mg/kg
- Hypertensive effect in words ([4]; dogs, all doses): does not cause secondary hypotension; also recorded: greater in hypotensive than in normotensive animals; also recorded: pronounced hypertensive effect at all the doses used
- Hypertensive effect in words ([4]; dogs, all doses, listed as S-ethylisothiouroniumdiethylphosphate): the hypertensive reaction in dogs with low arterial pressure is stronger and more prolonged
